Measurements reported in patent US3940479A (Meiji Seika Kaisha, Ltd., priority 1974, dated 1976).

Each compound was assayed on Bacillus polymyxa BN-109 (assay: Sensitivity of producing strain BN-109 towards antibiotics (disc method)).
Assay type: cell-based
From the text: 14. Sensitivity towards antibiotics (disc method):
With Polymyxin B the Sensitivity towards antibiotics was “Resistant”. In the case of `CN(C)C1C(=O)C(C(N)=O)=C(O)C2(O)C(=O)C3=C(O)c4c(O)cccc4C(C)(O)C3CC12` (centres unmarked) [tetracyclin], the Sensitivity towards antibiotics is reported as “Sensitive”. For `NC[C@H]1O[C@H](O[C@H]2[C@H](O[C@@H]3O[C@H](CO)[C@@H](O)[C@H]3O)[C@@H](O)[C@H](N)C[C@@H]2N)[C@H](N)[C@@H](O)[C@@H]1O` [vistamycin], the Sensitivity towards antibiotics was “Sensitive”. With `NC[C@H]1O[C@H](O[C@H]2[C@H](O)[C@@H](O[C@H]3O[C@H](CO)[C@@H](O)[C@H](N)[C@H]3O)[C@H](N)C[C@@H]2N)[C@H](O)[C@@H](O)[C@@H]1O` [kanamycin] the Sensitivity towards antibiotics was “Sensitive”. `CCn1cc(C(=O)O)c(=O)c2ccc(C)nc21` [nalidixic acid] was tested, and the Sensitivity towards antibiotics was “Sensitive”. For `CC[C@H]1OC(=O)[C@H](C)[C@@H](O[C@H]2C[C@@](C)(OC)[C@@H](O)[C@H](C)O2)[C@H](C)[C@@H](O[C@@H]2O[C@H](C)C[C@H](N(C)C)[C@H]2O)[C@](C)(O)C[C@@H](C)C(=O)[C@H](C)[C@@H](O)[C@]1(C)O` [erythromycin], the Sensitivity towards antibiotics was “Sensitive”. In the case of `O=C(Cc1cccs1)N[C@@H]1C(=O)N2C(C(=O)[O-])=C(C[n+]3ccccc3)CS[C@H]12` [cephalolidin], the Sensitivity towards antibiotics is reported as “Sensitive”. For `[H]/N=C(/N)N[C@H]1[C@H](O)[C@@H](O)[C@H](O[C@@H]2O[C@@H](C)[C@](O)(C=O)[C@H]2O[C@@H]2O[C@@H](CO)[C@H](O)[C@@H](O)[C@@H]2NC)[C@@H](N/C(N)=N\[H])[C@@H]1O` [Streptomycin], the Sensitivity towards antibiotics was “Sensitive”. colistin was tested, and the Sensitivity towards antibiotics was “Resistant”. In the case of `O=C(N[C@H](CO)[C@H](O)c1ccc([N+](=O)[O-])cc1)C(Cl)Cl` [chloramphenical], the Sensitivity towards antibiotics is reported as “Sensitive”. With `CC1(C)S[C@@H]2[C@H](NC(=O)Cc3ccccc3)C(=O)N2[C@H]1C(=O)O` [penicillin] the Sensitivity towards antibiotics was “Sensitive”.
